Test results as given in ChEMBL document CHEMBL1134209, “Syntheses and evaluation of pyrido[2,3-dlpyrimidine-2,4-diones as PDE 4 inhibitors” (Bioorg Med Chem Lett, 2001).

What follows are compounds tested against Phosphodiesterase 4 (Rattus norvegicus) (UniProt P14270+P14646+P14644+P54748) (assay: In vitro inhibitory activity against phosphodiesterase 4 from rat liver at concentration of 3 uM).

Q: For `Cn1c(=O)n(Cc2ccccc2)c(=O)c2cc(-c3cccc(C(F)(F)F)c3)cnc21`, which Inhibition is on record?
A: 37.6%

Q: Which Inhibition does the source give for `Cn1c(=O)n(Cc2ccccc2)c(=O)c2cc(-c3ccc(F)cc3)cnc21` here?
A: 44%

Q: Which Inhibition does the source give for `Cn1c(=O)n(Cc2ccccc2)c(=O)c2cc(-c3ccc(Cl)cc3)cnc21` here?
A: 47.8%

Q: `CCOC(=O)c1cnc2c(c1)c(=O)n(Cc1ccccc1)c(=O)n2C` was tested. Which Inhibition did it give?
A: 43%

Q: How did the Inhibition turn out when `Cn1c(=O)n(Cc2ccccc2)c(=O)c2c(-c3ccccc3F)ccnc21` was run?
A: 69.7%

Q: For `Cn1c(=O)n(Cc2ccccc2)c(=O)c2cc(-c3cccc([N+](=O)[O-])c3)cnc21`, which Inhibition is on record?
A: 23.5%

Q: For `Cn1c(=O)n(Cc2ccccc2)c(=O)c2cc(-c3ccccc3)cnc21`, which Inhibition is on record?
A: 31.3%

Q: For `CCCOCc1cnc2c(c1)c(=O)n(Cc1ccccc1)c(=O)n2C`, which Inhibition is on record?
A: 46.7%

Q: With `Cn1c(=O)n(Cc2ccccc2)c(=O)c2c(Cc3ccccc3)ccnc21` as the compound, how does the Inhibition read?
A: 57.1%

Q: With `CCOc1ccc(-c2ccnc3c2c(=O)n(Cc2ccccc2)c(=O)n3C)cc1` as the compound, how does the Inhibition read?
A: 35.1%

Q: How did the Inhibition turn out when `Cn1c(=O)n(Cc2ccccc2)c(=O)c2cc(COc3ccccc3)cnc21` was run?
A: 45.1%

Q: How did the Inhibition turn out when `Cn1c(=O)n(Cc2ccccc2)c(=O)c2cc(Cc3ccccc3)cnc21` was run?
A: 68.2%

Q: For `Cn1c(=O)n(Cc2ccccc2)c(=O)c2cc(-c3ccccc3F)cnc21`, which Inhibition is on record?
A: 46.4%

Q: For `Cn1c(=O)n(Cc2ccccc2)c(=O)c2cc(-c3ccccc3C(F)(F)F)cnc21`, which Inhibition is on record?
A: 53.7%

Q: Which Inhibition does the source give for `Cn1c(=O)n(Cc2ccccc2)c(=O)c2cc(COCc3ccccc3)cnc21` here?
A: 49.8%

The compounds below were run against Phosphodiesterase 4 (Rattus norvegicus, UniProt P14270+P14646+P14644+P54748) (assay: Inhibition of phosphodiesterase 4 from rat liver at 0.3 uM (not determined)).

Q: Which IC50 does the source give for `Cn1c(=O)n(Cc2ccccc2)c(=O)c2cc(-c3ccccc3)cnc21` here?
A: > 10 µM
